One series addresses CYP3A-M (Homo sapiens, UniProt P08684). Briefly: Human liver microsomal CYP inhibition test, CYP3A-M (midazolam). Particulars: human liver microsomes 0.2 mg/mL; substrate Midazolam. The format is in vitro ADME. Here is the method: (§1) 3.1 Buffer solutions: (1) potassium phosphate 100 mM; (2) magnesium chloride, 33 mM;
(§2) 3.2.3 Reservoir for compounds to be tested: Dissolving the compounds to be tested in DMSO to form a 10 mM DMSO solution.
(§3) 3.4.1 Preparation of human liver microsomal working solution (1.27×) (final concentration: 0.2 mg/mL)
(§4) 3.5.3 Adding 20 μL of substrate solution to the appropriate wells and 20 μL of potassium phosphate buffer to the blank wells;
(§5) 3.5.4 Adding 2 μL of different concentrations of target compounds (final concentrations from 0.05 μM to 50 μM, 7 concentrations in total) or standard inhibitors to each well, with 2 μL of methanol solution in the non-inhibitor and blank wells;
(§6) 3.5.5 Adding 1.012 mL of liver microsomes to 78.988 mL of potassium phosphate buffer, then adding 158 μL of liver microsomes solution to all wells; preheating the well plate for 10 minutes in a 37° C. water bath;
(§7) 3.5.6 Weighing 129.1 mg NADPH (purchased from SyncoZymes Co. Ltd.) and adding to 15.0 mL of 33 Mm MgCl2 solution to give a 10 mM concentration, adding 20 μL to each well;
(§8) 3.5.7 Mixing and incubating the well plate in a 37° C. water bath for 10 minutes, then adding 400 μL of cold termination solution at the appropriate time point;
(§9) 3.5.8 Centrifuging the sample at 4000 rpm for 20 minutes to precipitate the protein. Transferring 200 μL of supernatant to 100 μL of HPLC water and shaking for 10 minutes. The samples were analyzed by LC/MS/MS;
(§10) Percentage inhibition was plotted for blank control and different concentrations of target compounds by using XL fitting or SigmaPlot and the data were analyzed by non-linear regression. IC50 values were determined by using either 3-parameter or 4-parameter logistic equations.

Another series addresses CYP2D6 (Homo sapiens (Human), UniProt P10635). Nature of the series: Human liver microsomal CYP inhibition test, CYP2D6. Particulars: human liver microsomes 0.2 mg/mL; substrate Dextromethorphan. The format is in vitro ADME. As to the method:
as §1, §2, §3, §4, §5, §6, §7, §8, §9, §10
A general note: Microsomes from liver hold many membrane-bound enzymes, among them those of drug oxidation.

A further series deals with CYP1A2 (Homo sapiens (Human), UniProt P05177). Briefly: Human liver microsomal CYP inhibition test, CYP1A2. It counts as in vitro ADME. Conditions: for pIC50: microsomes; for IC50: human liver microsomes 0.2 mg/mL, substrate Phenacetin, read-out: IC50 (μM) CYP1A2. Here is the method:
as §1, §2, §3, §4, §5, §6, §7, §8, §9, §10

The target of a further series is CYP2C9 (Homo sapiens (Human), UniProt P11712). Nature of the series: Human liver microsomal CYP inhibition test, CYP2C9. Conditions: human liver microsomes 0.2 mg/mL; substrate Diclofenac. The format is in vitro ADME. As to the method: as §1, §2, §3, §4, §5, §6, §7, §8, §9, §10
Series [1] can be described thus: Pharmacokinetic experiment, rat test, gavage administration. The format is in vivo, SD rats. Conditions: 10 mg/kg; for AUC(0-t) / Cmax: Sprague-Dawley, rat, plasma, po; for AUC(0-t): read-out: Area under the curve AUC0-t; for Cmax: read-out: blood concentration Cmax. An excerpt: 4.1.1 Abstract: SD rats were used as test animals, the LC/MS/MS method was applied to determine the drug concentration of the compounds of the Examples in plasma at different points after gavage administration to rats, to study the pharmacokinetic behavior of the compounds of the present invention in rats, and to evaluate their pharmacokinetic characteristics.
4.1.2.2 Test animals: 6 male SD rats and 6 female rats, all provided by Shanghai Jihui Laboratory Animal Breeding Co. The animals were fasted for at least 12 hours before administration and food supply was resumed 4 hours after administration.
4.1.2.3 Drug Preparation: Weighed an amount of the test compound separately and prepared a completely clear solution with a final concentration of 1 mg/mL using a mixed solvent of DMSO: Solutol: Saline (5%: 5%: 90%).
4.1.2.4 Administration: a dose of 10 mg/kg, a volume of 10 mL/kg.
4.1.3 Test operation: 0.1 mL blood samples were collected from the orbit before and 15 min, 30 min, 1 h, 2h, 4 h, 6h, 8 h, 10h, 24 h after the administration of the drug to male rats and placed in EDTA-K2 anticoagulant tubes. 0.03 mL blood samples were collected from the orbit before and 0.5h, 1 h, 2h, 3 h, 6h, 10 h and 24 h after administration to female rats. After blood samples were collected, they were placed in labelled centrifuge tubes in ice-water bath and rapidly centrifuged to separate the plasma at 4000 rpm for 10 min at 4° C. The plasma was stored at −70° C. or below for measurement.
The plasma samples were thawed at room temperature and 50 μL was added to 400 μL of acetonitrile containing the internal standard (40 ng/mL, terfenadine), vortexed for 1 min and centrifuged for 10 min at 4° C. and 15,400 g. 1 μL of the supernatant was injected for analysis.

For a further series, the target named is CYP3A (printed CYP3A-M) (Homo sapiens, UniProt P08684). Nature of the series: Human liver microsomal CYP inhibition test, CYP3A-M (midazolam). The format is in vitro ADME. As to the method:
as §1, §2, §3, §4, §5, §6, §7, §8, §9, §10

The target of a further series is CYP2C19 (Homo sapiens (Human), UniProt P33261). Nature of the series: Human liver microsomal CYP inhibition test, CYP2C19. It counts as in vitro ADME. Conditions: human liver microsomes 0.2 mg/mL; substrate S-mephenytoin. As to the method: as §1, §2, §4, §5, §6, §7, §8, §9, §10

pIC50: −log10 of the molar value. Like-named read-outs stand apart in the source and are kept apart here. A value given as a limit tells only on which side of the number the result lay.

Chain of CYP1A2 (P05177 whole entry): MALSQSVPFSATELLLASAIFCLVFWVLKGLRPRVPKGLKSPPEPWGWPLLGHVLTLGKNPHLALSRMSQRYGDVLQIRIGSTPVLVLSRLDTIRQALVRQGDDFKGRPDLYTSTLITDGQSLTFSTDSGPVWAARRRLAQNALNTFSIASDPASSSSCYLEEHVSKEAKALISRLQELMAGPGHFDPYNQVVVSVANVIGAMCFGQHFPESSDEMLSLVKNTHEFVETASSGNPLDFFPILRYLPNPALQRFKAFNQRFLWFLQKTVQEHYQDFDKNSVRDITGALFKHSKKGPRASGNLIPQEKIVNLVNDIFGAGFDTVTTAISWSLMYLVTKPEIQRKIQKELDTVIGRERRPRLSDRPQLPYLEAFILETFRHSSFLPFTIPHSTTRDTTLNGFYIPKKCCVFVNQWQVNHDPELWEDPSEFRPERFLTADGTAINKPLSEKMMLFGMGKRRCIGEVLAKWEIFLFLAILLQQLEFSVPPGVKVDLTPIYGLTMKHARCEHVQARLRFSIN
Chain of CYP2D6 (P10635 whole entry): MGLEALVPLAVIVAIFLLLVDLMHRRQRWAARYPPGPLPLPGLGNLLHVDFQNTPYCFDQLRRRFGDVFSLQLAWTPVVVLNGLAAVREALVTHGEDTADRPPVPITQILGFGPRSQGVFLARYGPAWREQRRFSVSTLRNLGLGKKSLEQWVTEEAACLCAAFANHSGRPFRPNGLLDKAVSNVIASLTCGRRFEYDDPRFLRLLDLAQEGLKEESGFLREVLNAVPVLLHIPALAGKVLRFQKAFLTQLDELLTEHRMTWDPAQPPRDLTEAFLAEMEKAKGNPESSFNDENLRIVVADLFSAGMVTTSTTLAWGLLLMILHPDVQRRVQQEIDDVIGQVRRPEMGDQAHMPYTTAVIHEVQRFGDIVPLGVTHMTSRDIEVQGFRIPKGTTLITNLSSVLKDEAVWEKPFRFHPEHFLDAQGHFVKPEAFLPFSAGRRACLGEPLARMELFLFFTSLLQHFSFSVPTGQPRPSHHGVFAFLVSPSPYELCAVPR
Chain of CYP2C9 (P11712 whole entry): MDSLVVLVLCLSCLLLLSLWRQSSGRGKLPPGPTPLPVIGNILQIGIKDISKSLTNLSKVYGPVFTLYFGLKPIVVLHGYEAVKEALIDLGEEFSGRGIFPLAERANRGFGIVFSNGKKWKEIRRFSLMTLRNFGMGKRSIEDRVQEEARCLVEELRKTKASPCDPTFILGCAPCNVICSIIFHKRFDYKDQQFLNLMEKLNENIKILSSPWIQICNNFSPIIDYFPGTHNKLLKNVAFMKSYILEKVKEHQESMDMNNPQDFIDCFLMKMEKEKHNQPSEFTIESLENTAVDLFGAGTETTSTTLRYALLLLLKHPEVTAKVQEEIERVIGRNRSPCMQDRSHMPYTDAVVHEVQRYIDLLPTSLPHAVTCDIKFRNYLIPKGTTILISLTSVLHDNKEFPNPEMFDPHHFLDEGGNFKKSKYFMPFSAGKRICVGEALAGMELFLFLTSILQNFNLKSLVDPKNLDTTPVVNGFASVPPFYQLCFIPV
Chain of CYP2C19 (P33261 whole entry): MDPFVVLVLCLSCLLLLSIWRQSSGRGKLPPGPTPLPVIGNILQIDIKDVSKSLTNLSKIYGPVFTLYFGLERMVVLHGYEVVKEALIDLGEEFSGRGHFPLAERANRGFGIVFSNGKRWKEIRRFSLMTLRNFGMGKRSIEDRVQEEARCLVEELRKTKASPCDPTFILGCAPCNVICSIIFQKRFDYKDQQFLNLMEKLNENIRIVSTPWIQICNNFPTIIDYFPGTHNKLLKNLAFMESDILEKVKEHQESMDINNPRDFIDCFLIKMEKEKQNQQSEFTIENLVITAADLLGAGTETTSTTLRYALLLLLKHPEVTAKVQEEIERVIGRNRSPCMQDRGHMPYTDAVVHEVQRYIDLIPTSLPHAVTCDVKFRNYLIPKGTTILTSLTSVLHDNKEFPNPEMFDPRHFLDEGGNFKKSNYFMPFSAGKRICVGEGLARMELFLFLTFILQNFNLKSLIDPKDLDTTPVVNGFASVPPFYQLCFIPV
Chain of CYP3A-M (P08684 2-503 limits assumed): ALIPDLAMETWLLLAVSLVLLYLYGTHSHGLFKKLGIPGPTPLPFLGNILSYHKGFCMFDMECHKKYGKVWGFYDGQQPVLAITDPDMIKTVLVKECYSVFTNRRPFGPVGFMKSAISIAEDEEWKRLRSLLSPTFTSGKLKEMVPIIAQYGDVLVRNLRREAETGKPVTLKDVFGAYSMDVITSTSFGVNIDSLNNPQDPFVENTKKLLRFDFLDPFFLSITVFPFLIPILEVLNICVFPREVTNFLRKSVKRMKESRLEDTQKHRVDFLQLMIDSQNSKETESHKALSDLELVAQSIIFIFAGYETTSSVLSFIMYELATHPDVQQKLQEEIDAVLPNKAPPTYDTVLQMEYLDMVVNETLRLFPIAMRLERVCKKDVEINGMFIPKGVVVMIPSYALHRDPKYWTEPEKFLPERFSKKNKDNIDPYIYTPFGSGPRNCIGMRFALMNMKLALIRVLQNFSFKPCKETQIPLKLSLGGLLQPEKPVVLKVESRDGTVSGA
Chain of CYP3A (printed CYP3A-M) (P08684 2-503 limits assumed): as above

“4-((2R,3S,4S,5R)-3-(3,4-difluoro-2-(methoxy-d3)phenyl)-4,5-dimethyl-5-(trifluoromethyl) pyrrolidine-2-carboxamido)pyridinamide [Compound 11]”: the results for the 50% inhibitory concentration (IC50) on CYP3A-M, at CYP2D6 and on CYP2C9 were above 50 µM, above 50 µM and 41.4 µM, respectively. Besides, the pIC50 (usually the IC50 on a negative log10 scale, so that one unit is a factor of ten) at CYP1A2 was below 4.30. The results for the “Area under the curve AUC0-t” value in series [1] (female SD rats) and in series [1] (male SD rats) were 23809 ng·h/mL and 4656 ng·h/mL, respectively. The “blood concentration Cmax” value came to 1850 ng/mL in series [1] (female SD rats) and 1006 ng/mL in series [1] (male SD rats).

Take `COc1c([C@H]2[C@H](C(=O)Nc3ccc[n+]([O-])c3)N[C@@](C)(C(F)(F)F)[C@H]2C)ccc(F)c1F` [Compound 7, 3-((2R,3S,4S,5R)-3-(3,4-difluoro-2-methoxyphenyl)-4,5-dimethyl-5-(trifluoromethyl)pyrrolidine-2-carboxamido)pyridine 1-oxide]: the IC50 – broadly, the concentration needed to halve the response being measured – at 10 min at CYP3A (printed CYP3A-M) (probe Midazolam, human liver microsomes 0.2 mg/mL, substrate Midazolam, read-out: IC50 (μM) CYP3A-M) was determined as 30.9 µM. The 50% inhibitory concentration (IC50) on CYP2D6 was above 50 µM; on CYP1A2, above 50 µM; on CYP2C9 it was above 50 µM; on CYP2C19, 2.13 µM.

As for `COc1c([C@H]2[C@H](C(=O)Nc3cccc(S(N)(=O)=O)c3)N[C@@](C)(C(F)(F)F)[C@H]2C)ccc(F)c1F` [Compound 8, (2R,3S,4S,5R)-3-(3,4-difluoro-2-methoxyphenyl)-4,5-dimethyl-aza-(3-aminosulfonylphenyl)-5-(trifluoromethyl) pyrrolidine-2-carboxamide], the IC50 was 26.2 µM at CYP3A-M, 41.6 µM against CYP2D6, 22.9 µM on CYP2C9 and 29 µM against CYP2C19. The pIC50 against CYP1A2 was below 4.30.

`COc1c([C@H]2[C@H](C(=O)Nc3ccnc(C(N)=O)c3)O[C@@](C)(C(F)(F)F)[C@H]2C)ccc(F)c1F` [VX-548, reference compound]: the IC50 at 10 min against CYP3A (printed CYP3A-M) (human, microsomes) is above 50 µM. Moreover, the IC50 was above 50 µM against CYP2D6, above 50 µM at CYP1A2, 17.4 µM on CYP2C9 and 3.74 µM at CYP2C19. For the same molecule, the figures for the AUC(0-t) in series [1] (female SD rats) and in series [1] (male SD rats) were 10900 ng·h/mL and 1210 ng·h/mL, respectively. For the same molecule, the Cmax in series [1] (female SD rats) stood at 719 ng/mL; in series [1] (male SD rats), 385 ng/mL.

The values above are taken from US20250296922A1, “POLYSUBSTITUTED PYRROLIDINE DERIVATIVE, PREPARATION METHOD THEREFOR AND USE THEREOF” (SHANGHAI WENNAI THERAPEUTICS CO LTD, priority 2023, published 2025).
